The source of these data is publication PMC8205491, “Tetrahydroxanthohumol, a xanthohumol derivative, attenuates high-fat diet-induced hepatic steatosis by antagonizing PPARγ” (eLife, 2021).

SMILES strings stand for the structures. pIC50: −log10 of the molar value.

A word on the pIC50: it is the negative decadic logarithm of the IC50, by convention in mol/L. A lower pIC50 goes with a high IC50.

This assay has as its target T1, PPARγ (Homo sapiens, UniProt P37231).
T1 construct: gene PPARG
T1 sequence (P37231 235-505 limits assumed): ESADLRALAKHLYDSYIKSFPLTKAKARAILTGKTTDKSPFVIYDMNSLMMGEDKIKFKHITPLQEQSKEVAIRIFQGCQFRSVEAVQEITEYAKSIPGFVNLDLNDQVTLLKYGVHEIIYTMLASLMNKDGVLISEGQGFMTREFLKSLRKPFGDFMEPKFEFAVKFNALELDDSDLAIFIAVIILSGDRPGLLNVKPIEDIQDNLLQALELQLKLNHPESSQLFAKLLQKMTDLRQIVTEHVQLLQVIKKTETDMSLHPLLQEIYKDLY
Description: LanthaScreen TR-FRET competitive binding assay (displacement of Fluormone Pan-PPAR Green). A general note: Time-resolved FRET reads energy transfer from a long-lived donor to a nearby acceptor.
Turning to `CCCCCCCC/C=C\CCCCCCCC(=O)O` [Oleic acid], the pIC50 is 4.78. Compound `COc1cc(O)c(CCC(C)C)c(O)c1C(=O)CCc1ccc(O)cc1` [TXN, Tetrahydroxanthohumol] showed a pIC50 of 5.86. Then `COc1cc(O)c(CC=C(C)C)c(O)c1C(=O)/C=C/c1ccc(O)cc1` [XN, Xanthohumol], with 5.71.
